Reference: patent US20070244196A1, “Prostaglandin F2alpha derivative-containing product” (SANTEN PHARMACEUTICAL CO., LTD., priority 2004, published 2007)

Test: Storage stability test (eye drop in contact with resin containers, 40° C. for 7 days, HPLC)
Assay type: physicochemical
Settings: eye drop (present compound 0.0005%, polysorbate 80 0.05%, pH about 6), containers of propylene/ethylene random copolymer (98.7/1.3, 97.4/2.6, 96.4/3.6) compared with propylene homopolymer container
Method: Hereinafter, the present invention will be described in detail through carrying out a storage stability test (40° C. for 7 days). However, such descriptions are disclosed for the purpose of understanding the present invention better and are not meant to limit the scope of the present invention.
As a typical example of a prostaglandin F2α derivative having at least a fluorine atom in its molecule, 16-phenoxy-15-deoxy-15,15-difluoro-17,18,19,20-tetranor-prostaglandin F2α isopropyl ester (hereinafter, referred to as the “present compound” ) was used. The present compound (0.0005%) and polysorbate 80 (0.05%) were dissolved in purified water, and then, commonly used additives such as disodium edetate (q.s.), concentrated glycerin (q.s.), benzalkonium chloride (q.s.) and the like were added thereto to obtain an eye drop with an osmotic pressure of about 1 and a pH of about 6. […]
The eye drop (110 ml) obtained in the section of “(1) Preparation of Eye Drop” was placed in a glass container and the glass container was heated to 40° C. […] The amount of the present compound contained in the glass container was measured by high performance liquid chromatography before and after the storage, and the content of the present compound (average) was calculated taking the content of the present compound at the time of initiation of storage as 100%.

content of the present compound (average), content at the time of initiation of storage taken as 100%: higher
Structure (SMILES): CC(C)OC(=O)CCC/C=C\C[C@@H]1[C@@H](/C=C/C(F)(F)COc2ccccc2)[C@H](O)C[C@@H]1O [present compound, 16-phenoxy-15-deoxy-15,15-difluoro-17,18,19,20-tetranor-prostaglandin F2α isopropyl ester]
